molecular target: GST-Bcl-2 (Homo sapiens (Human), UniProt P10415); assay: Time Resolved-Fluorescence Resonance Energy Transfer (TR-FRET) Bcl-2 binding assay; details: GST-Bcl-2 1 nM, F-Bak peptide probe 100 nM, Tb-anti-GST antibody 1 nM; Ki by Wang's equation
Method in brief: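 Competition TR-FRET: GST-Bcl-2 with fluorescent Bak peptide probe and Tb-anti-GST antibody, compounds serially diluted from 50 μM (2× start, 10% DMSO).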

GST-Bcl-2, sequence (P10415 whole entry): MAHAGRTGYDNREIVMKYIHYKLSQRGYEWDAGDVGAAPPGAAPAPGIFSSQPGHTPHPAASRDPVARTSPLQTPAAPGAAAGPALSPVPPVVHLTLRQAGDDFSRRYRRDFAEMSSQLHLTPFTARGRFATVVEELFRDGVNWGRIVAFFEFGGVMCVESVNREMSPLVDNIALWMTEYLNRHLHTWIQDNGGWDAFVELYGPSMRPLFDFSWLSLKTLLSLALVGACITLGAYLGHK

Point of comparison: `CC1(C)CCC(CN2CCN(c3ccc(C(=O)NS(=O)(=O)c4ccc(NCC5(F)CCOCC5)c([N+](=O)[O-])c4)c(Oc4cc5cc[nH]c5cc4F)c3)CC2)=C(c2ccc(Cl)cc2)C1` [Example 337, 4-(4-{[2-(4-chlorophenyl)-4,4-dimethylcyclohex-1-en-1-yl]methyl}piperazin-1-yl)-2-[(6-fluoro-1H-indol-5-yl)oxy]-N-[(4-{[(4-fluorotetrahydro-2H-pyran-4-yl)methyl]amino}-3-nitrophenyl)sulfonyl]benzamide], Ki 0.049 nM. Against it:
- CC1(C)CCC(CN2CCN(c3ccc(C(=O)NS(=O)(=O)c4cnc(OC[C@@H]5CCN(CC(F)F)C5)c(Cl)c4)c(Oc4cnc(N)c(Cl)c4)c3)CC2)=C(c2ccc(Cl)cc2)C1 [Example 400, 2-[(6-amino-5-chloropyridin-3-yl)oxy]-N-[(5-chloro-6-{[(3R)-1-(2,2-difluoroethyl)pyrrolidin-3-yl]methoxy}pyridin-3-yl)sulfonyl]-4-(4-{[2-(4-chlorophenyl)-4,4-dimethylcyclohex-1-en-1-yl]methyl}piperazin-1-yl)benzamide] — 1.7-fold higher, 0.082 nM
- O=C1CCc2c(cccc2Oc2cc(N3CCN(Cc4ccccc4-c4ccc(Cl)cc4)CC3)ccc2C(=O)NS(=O)(=O)c2ccc(NCC3CCOCC3)c([N+](=O)[O-])c2)N1 [Example 95, 4-(4-((4′-chloro-1,1′-biphenyl-2-yl)methyl)piperazin-1-yl)-N-((3-nitro-4-((tetrahydro-2H-pyran-4-ylmethyl)amino)phenyl)sulfonyl)-2-((2-oxo-1,2,3,4-tetrahydroquinolin-5-yl)oxy)benzamide] — 8.7-fold higher, 0.428 nM
- CN(C)CCCNc1ccc(S(=O)(=O)NC(=O)c2ccc(N3CCN(CC4=C(c5ccc(Cl)cc5)CC(C)(C)CC4)CC3)cc2Oc2ccccc2Cl)cc1[N+](=O)[O-] [Example 179, 2-(2-chlorophenoxy)-4-(4-{[2-(4-chlorophenyl)-4,4-dimethylcyclohex-1-en-1-yl]methyl}piperazin-1-yl)-N-[(4-{[3-(dimethylamino)propyl]amino}-3-nitrophenyl)sulfonyl]benzamide] — within 1.5-fold, 0.036 nM
- Cn1c(=O)[nH]c2cccc(Oc3cc(N4CCN(CC5=C(c6ccc(Cl)cc6)CC(C)(C)CC5)CC4)ccc3C(=O)NS(=O)(=O)c3ccc(NCC4CCOCC4)c([N+](=O)[O-])c3)c21 [Example 368, 4-(4-{[2-(4-chlorophenyl)-4,4-dimethylcyclohex-1-en-1-yl]methyl}piperazin-1-yl)-2-[(3-methyl-2-oxo-2,3-dihydro-1H-benzimidazol-4-yl)oxy]-N-({3-nitro-4-[(tetrahydro-2H-pyran-4-ylmethyl)amino]phenyl}sulfonyl)benzamide] — lower, < 0.01 nM
- Cc1cc2cc(Oc3cc(N4CCN(CC5=C(c6ccc(Cl)cc6)CC(C)(C)CC5)CC4)ccc3C(=O)NS(=O)(=O)c3ccc(NC4CCN(C)CC4)c([N+](=O)[O-])c3)ccc2[nH]1 [Example 3, 4-(4-((2-(4-chlorophenyl)-4,4-dimethylcyclohex-1-en-1-yl)methyl)piperazin-1-yl)-2-((2-methyl-1H-indol-5-yl)oxy)-N-((4-((1-methylpiperidin-4-yl)amino)-3-nitrophenyl)sulfonyl)benzamide] — 17-fold higher, 0.827 nM
- COc1ccc(Cn2nnc3c(Oc4cc(N5CCN(CC6=C(c7ccc(Cl)cc7)CC(C)(C)CC6)CC5)ccc4C(=O)NS(=O)(=O)c4ccc(NCC5CCOCC5)c([N+](=O)[O-])c4)cccc32)cc1 [Example 342, 4-(4-{[2-(4-chlorophenyl)-4,4-dimethylcyclohex-1-en-1-yl]methyl}piperazin-1-yl)-2-{[1-(4-methoxybenzyl)-1H-1,2,3-benzotriazol-4-yl]oxy}-N-({3-nitro-4-[(tetrahydro-2H-pyran-4-ylmethyl)amino]phenyl}sulfonyl)benzamide] — 68-fold higher, 3.34 nM
- CC(C)(C)OC(=O)Nc1ccc(Oc2cc(N3CCN(Cc4ccccc4-c4ccc(Cl)cc4)CC3)ccc2C(=O)NS(=O)(=O)c2ccc(NCC3CCOCC3)c([N+](=O)[O-])c2)cc1 [Example 83, tert-butyl 4-(5-(4-((4′-chloro-1,1′-biphenyl-2-yl)methyl)piperazin-1-yl)-2-((((3-nitro-4-((tetrahydro-2H-pyran-4-ylmethyl)amino)phenyl)sulfonyl)amino)carbonyl)phenoxy)phenylcarbamate] — higher, > 1200 nM
- CC1(C)CC(c2ccc(Cl)cc2)=C(CN2CCN(c3ccc(C(=O)NS(=O)(=O)c4cnc(OCC5CCC(F)(F)CC5)c(Cl)c4)c(Oc4cc5cc[nH]c5cc4F)c3)CC2)CO1 [Example 410, N-({5-chloro-6-[(4,4-difluorocyclohexyl)methoxy]pyridin-3-yl}sulfonyl)-4-(4-{[4-(4-chlorophenyl)-6,6-dimethyl-5,6-dihydro-2H-pyran-3-yl]methyl}piperazin-1-yl)-2-[(6-fluoro-1H-indol-5-yl)oxy]benzamide] — lower, < 0.01 nM
- Cc1c[nH]c2cccc(Oc3cc(N4CCN(CC5=C(c6ccc(Cl)cc6)CC(C)(C)CC5)CC4)ccc3C(=O)NS(=O)(=O)c3ccc(NCCCN4CCOCC4)c([N+](=O)[O-])c3)c12 [Example 63, 4-(4-((2-(4-chlorophenyl)-4,4-dimethylcyclohex-1-en-1-yl)methyl)piperazin-1-yl)-2-((3-methyl-1H-indol-4-yl)oxy)-N-((4-((3-morpholin-4-ylpropyl)amino)-3-nitrophenyl)sulfonyl)benzamide] — 8.9-fold higher, 0.438 nM
- CC1(C)CCC(c2ccc(Cl)cc2)=C(CN2CCN(c3ccc(C(=O)NS(=O)(=O)c4ccc(NCC5CCOCC5)c([N+](=O)[O-])c4)c(Oc4cc5cc[nH]c5cc4F)c3)CC2)C1 [Example 262, 4-(4-{[2-(4-chlorophenyl)-5,5-dimethylcyclohex-1-en-1-yl]methyl}piperazin-1-yl)-2-[(6-fluoro-1H-indol-5-yl)oxy]-N-({3-nitro-4-[(tetrahydro-2H-pyran-4-ylmethyl)amino]phenyl}sulfonyl)benzamide] — 5.6-fold higher, 0.276 nM
- O=C(NS(=O)(=O)c1ccc(NCC2CCOCC2)c([N+](=O)[O-])c1)c1ccc(N2CCN(Cc3ccccc3-c3ccc(Cl)cc3)CC2)cc1Oc1ccc2[nH]cc(CCC(=O)N3CCOCC3)c2c1 [Example 73, 4-(4-((4′-chloro-1,1′-biphenyl-2-yl)methyl)piperazin-1-yl)-2-((3-(3-morpholin-4-yl-3-oxopropyl)-1H-indol-5-yl)oxy)-N-((3-nitro-4-((tetrahydro-2H-pyran-4-ylmethyl)amino)phenyl)sulfonyl)benzamide] — 660-fold higher, 32.3 nM
- CN1CCC(Nc2ccc(S(=O)(=O)NC(=O)c3ccc(N4CCN(CC5=C(c6ccc(Cl)cc6)CC(C)(C)CC5)CC4)cc3Oc3cccc(Br)c3)cc2[N+](=O)[O-])CC1 [Example 46, 2-(3-bromophenoxy)-4-(4-((2-(4-chlorophenyl)-4,4-dimethylcyclohex-1-en-1-yl)methyl)piperazin-1-yl)-N-((4-((1-methylpiperidin-4-yl)amino)-3-nitrophenyl)sulfonyl)benzamide] — within 1.5-fold, 0.047 nM
- CC(C)N1CCC(Nc2ccc(S(=O)(=O)NC(=O)c3ccc(N4CCN(CC5=C(c6ccc(Cl)cc6)CC(C)(C)CC5)CC4)cc3Oc3cccc(Cl)c3)cc2[N+](=O)[O-])CC1 [Example 175, 2-(3-chlorophenoxy)-4-(4-{[2-(4-chlorophenyl)-4,4-dimethylcyclohex-1-en-1-yl]methyl}piperazin-1-yl)-N-({4-[(1-isopropylpiperidin-4-yl)amino]-3-nitrophenyl}sulfonyl)benzamide] — within 1.5-fold, 0.046 nM
- Cn1cnc2cc(Oc3cc(N4CCN(Cc5ccccc5-c5ccc(Cl)cc5)CC4)ccc3C(=O)NS(=O)(=O)c3ccc(NCCCN4CCOCC4)c([N+](=O)[O-])c3)ccc21 [Example 102, 4-(4-((4′-chloro-1,1′-biphenyl-2-yl)methyl)piperazin-1-yl)-2-((1-methyl-1H-benzimidazol-5-yl)oxy)-N-((4-((3-morpholin-4-ylpropyl)amino)-3-nitrophenyl)sulfonyl)benzamide] — 890-fold higher, 43.5 nM
- COc1cc2[nH]ccc2cc1Oc1cc(N2CCN(CC3=C(c4ccc(Cl)cc4)CC(C)(C)CC3)CC2)ccc1C(=O)NS(=O)(=O)c1ccc(NC2CCN(C3CCOCC3)CC2)c([N+](=O)[O-])c1 [Example 227, 4-(4-{[2-(4-chlorophenyl)-4,4-dimethylcyclohex-1-en-1-yl]methyl}piperazin-1-yl)-2-[(6-methoxy-1H-indol-5-yl)oxy]-N-({3-nitro-4-[(1-tetrahydro-2H-pyran-4-ylpiperidin-4-yl)amino]phenyl}sulfonyl)benzamide] — 3.6-fold higher, 0.174 nM
- Nc1ccc(Oc2cc(N3CCN(Cc4ccccc4-c4ccc(Cl)cc4)CC3)ccc2C(=O)NS(=O)(=O)c2ccc(NCC3CCOCC3)c([N+](=O)[O-])c2)cc1 [Example 18, 2-(4-aminophenoxy)-4-(4-((4′-chloro-1,1′-biphenyl-2-yl)methyl)piperazin-1-yl)-N-((3-nitro-4-((tetrahydro-2H-pyran-4-ylmethyl)amino)phenyl)sulfonyl)benzamide] — 51-fold higher, 2.49 nM
- CN(C)CCCNc1ccc(S(=O)(=O)NC(=O)c2ccc(N3CCN(CC4=C(c5ccc(Cl)cc5)CC(C)(C)CC4)CC3)cc2Oc2cccc(Cl)c2)cc1[N+](=O)[O-] [Example 142, 2-(3-chlorophenoxy)-4-(4-{[2-(4-chlorophenyl)-4,4-dimethylcyclohex-1-en-1-yl]methyl}piperazin-1-yl)-N-[(4-{[3-(dimethylamino)propyl]amino}-3-nitrophenyl)sulfonyl]benzamide] — within 1.5-fold, 0.071 nM
- CN(C)CCCc1c[nH]c2cccc(Oc3cc(N4CCN(CC5=C(c6ccc(Cl)cc6)CC(C)(C)CC5)CC4)ccc3C(=O)NS(=O)(=O)c3ccc(NCC4CCOCC4)c([N+](=O)[O-])c3)c12 [Example 339, 4-(4-{[2-(4-chlorophenyl)-4,4-dimethylcyclohex-1-en-1-yl]methyl}piperazin-1-yl)-2-({3-[3-(dimethylamino)propyl]-1H-indol-4-yl}oxy)-N-({3-nitro-4-[(tetrahydro-2H-pyran-4-ylmethyl)amino]phenyl}sulfonyl)benzamide] — within 1.5-fold, 0.057 nM

Source: patent US8952157B2, “Apoptosis-inducing agents for the treatment of cancer and immune and autoimmune diseases” (AbbVie Inc., priority 2008, dated 2015)
